Assay results published in patent US11077100B2, “Tetrahydroquinoline derivatives as P2X7 receptor antagonists” (RaQualia Pharma Inc., priority 2017, dated 2021).

Columns and labels:
rat P2X7 = rat P2X7 (Rattus norvegicus (Rat), UniProt Q64663); assay: Rat P2X7 functional assay (Ca2+ influx, Fluo-4, FDSS); assay type: cell-based; details: HEK293 cells stably expressing rat P2X7; BzATP final 10 microM; 7-point dose-response; read-out: Antagonistic activities with respect to the rat P2X7 receptor (IC50)
Procedure: Rat P2X7 Functional Assay
The functional activity of compounds was determined by measuring changes in intracellular calcium concentration using a Ca^2+-sensitive fluorescent dye, Fluo-4 (Molecular Probes). The changes in fluorescent signal were monitored by the cell imaging technology by Hamamatsu Photonics's Functional Drug Screening System (FDSS). Increases in intracellular Ca^2+ concentration were readily detected upon activation with BzATP.
HEK293 cells stably expressing rat P2X7 (GenBank accession number NM_019256) were grown in Corning CellBIND cell culture flasks, in a 5% CO2 humidified incubator to about 80% confluence. Media composition consisted of Dulbecco's Modified Eagle Medium (high glucose), 10% fetal bovine serum ([…]), 100 units/[…] Penicillin, 100 microg/mL Streptomycin and 250 microg/mL Geneticine.
1. […] Plate-out HEK293-rat P2X7 cells (40 microL medium containing 5,000 cells per well) into poly-D-lysine coated 384-well plates (BD Falcon) at 24 h prior to assay.
2. Incubate at 37° C. in 5% CO2.
3. Incubate the plate at 37° C. in 5% CO2 for 1 h.
5. Test compounds were prepared at 100× the test concentration in DMSO by serial dilution with Biomek-FX liquid handling instrument. 33× diluted compound solutions in assay buffer were prepared in intermediate compound plate with Biomek-NX liquid handling instrument. A further 3× dilution occurred in below steps 6 and 7.
6. Add 20 microL of 33× diluted compound solutions into each well and leave the plate for 10 min under the dark at room temperature.
7. Measure activity by FDSS as follows: • Set the assay plate on the stacker of FDSS. • Start the detection of fluorescence intensity at 540 nm by 480 nm exicitation. • After 30 seconds, add 20 microL of assay buffer containing 30 microM BzATP (final 10 microM).
IC50 values for compounds of the present invention were determined from 7-point dose-response studies. Curves were generated using the average of duplicate wells for each data point. Finally, the IC50 values are calculated with the best-fit dose curve determined by XLfit (ID Business Solutions Ltd.).

human P2X7 = human P2X7 (Homo sapiens (Human), UniProt Q99572); assay: Human P2X7 functional assay (Ca2+ influx, Fluo-4, FDSS); assay type: cell-based; details: antagonistic activity with respect to the human P2X7 receptor; BzATP final concentration 80 microM
Outline: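 Ca2+ influx was triggered with BzATP (80 μM final) after a 10-min room-temperature compound preincubation and monitored with Fluo-4 (ex 480/em 540 nm) on FDSS. The cells were HEK293 stably carrying FLAG-tagged human P2X7. Duplicate-averaged 7-point dose-responses gave IC50s.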

rat P2X7, sequence (Q64663 whole entry): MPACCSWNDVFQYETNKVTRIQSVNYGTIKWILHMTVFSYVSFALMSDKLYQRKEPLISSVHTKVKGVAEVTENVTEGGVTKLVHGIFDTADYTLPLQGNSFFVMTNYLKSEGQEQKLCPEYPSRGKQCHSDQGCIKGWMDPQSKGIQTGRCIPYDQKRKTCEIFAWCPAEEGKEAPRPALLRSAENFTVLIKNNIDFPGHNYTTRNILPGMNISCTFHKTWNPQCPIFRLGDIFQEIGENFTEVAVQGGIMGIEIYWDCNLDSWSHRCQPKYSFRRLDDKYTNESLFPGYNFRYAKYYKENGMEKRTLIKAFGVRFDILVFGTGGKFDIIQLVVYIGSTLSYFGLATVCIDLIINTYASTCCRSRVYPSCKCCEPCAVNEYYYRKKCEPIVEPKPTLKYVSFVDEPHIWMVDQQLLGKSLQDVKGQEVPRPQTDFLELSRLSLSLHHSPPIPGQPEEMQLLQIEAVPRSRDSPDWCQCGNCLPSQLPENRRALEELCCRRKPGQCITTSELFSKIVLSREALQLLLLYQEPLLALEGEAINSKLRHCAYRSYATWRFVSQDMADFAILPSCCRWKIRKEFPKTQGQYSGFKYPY
human P2X7, sequence (Q99572 whole entry): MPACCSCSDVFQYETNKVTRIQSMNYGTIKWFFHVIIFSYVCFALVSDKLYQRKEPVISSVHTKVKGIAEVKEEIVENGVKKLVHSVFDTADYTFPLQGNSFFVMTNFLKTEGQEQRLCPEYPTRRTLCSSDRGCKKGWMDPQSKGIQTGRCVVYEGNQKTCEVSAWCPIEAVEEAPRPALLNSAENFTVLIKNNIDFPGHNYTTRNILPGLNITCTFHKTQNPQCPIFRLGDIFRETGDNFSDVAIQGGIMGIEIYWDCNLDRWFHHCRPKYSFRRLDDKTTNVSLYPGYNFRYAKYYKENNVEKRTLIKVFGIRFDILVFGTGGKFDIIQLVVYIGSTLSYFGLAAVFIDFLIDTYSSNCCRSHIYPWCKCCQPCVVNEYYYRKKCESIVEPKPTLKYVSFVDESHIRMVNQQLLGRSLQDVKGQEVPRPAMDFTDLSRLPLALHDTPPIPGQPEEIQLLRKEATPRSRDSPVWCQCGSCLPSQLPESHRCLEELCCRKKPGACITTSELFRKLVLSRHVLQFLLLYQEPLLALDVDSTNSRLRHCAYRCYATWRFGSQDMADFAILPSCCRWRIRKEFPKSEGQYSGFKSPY

| Compound | IC50 (rat P2X7) [nM] | IC50 (human P2X7) [nM] |
| --- | --- | --- |
| CO[C@H]1CC[C@@](F)(C(=O)NCc2ccc(F)c(F)c2F)c2cccnc21 [Example 339, (5S,8S)-5-fluoro-8-methoxy-N-(2,3,4-trifluorobenzyl)-5,6,7,8-tetrahydroquinoline-5-carboxamide] | < 1000 | < 50 |
| O=C(NCc1c(Cl)cc(Cl)cc1CO)[C@]1(F)CC[C@@H](O)c2ncccc21 [Example 104] | < 1000 | < 50 |
| O=C(NCc1ccc(F)cc1Cl)[C@H]1CC[C@H](O)c2ncccc21 [Example 67, (5S,8S)-N-(2-chloro-4-fluorobenzyl)-8-hydroxy-5,6,7,8-tetrahydroquinoline-5-carboxamide] | < 1000 | 101 to 300 |
| N#CC[C@]1(O)CC[C@@](F)(C(=O)NCc2c(Cl)cc(Cl)cc2CO)c2cccnc21 [Example 283] | < 1000 | < 50 |
| O=C1CO[C@@]2(CC[C@@](F)(C(=O)NCc3ccc(Cl)cc3Cl)c3cccnc32)CN1 [Example 294, (2S,5′S)-N-(2,4-dichlorobenzyl)-5′-fluoro-5-oxo-6′,7′-dihydro-5′H-spiro [morpholine-2,8′-quinoline]-5′-carboxamide] | < 1000 | 50 to 100 |
| O=C(NCc1ccc(F)c(F)c1Cl)[C@H]1CC[C@H](O)c2ncccc21 [Example 81, (5S,8S)-N-(2-chloro-3,4-difluorobenzyl)-8-hy-droxy-5,6,7,8-tetrahydro-auinoline-5-carboxamide] | < 1000 | < 50 |
| O=C(NCc1ccc(Cl)cc1Cl)[C@@H]1CC[C@H](O)c2ncccc21 [Example 66, (5R,8S)-N-(2,4-dichloro-benzyl)-8-hydroxy-5,6,7,8-tetrahydroquinoline-5-carboxamide] | < 1000 | < 50 |
| CC(NC(=O)[C@]1(F)CC[C@H](O)c2ncccc21)C12CC3CC(CC(C3)C1)C2 (stereo partly drawn) [Example 231, (5S,8S)-N-(1-(adamantan-1-yl)ethyl)-5-fluoro-8-hydroxy-5,6,7,8-tetrahydroquinoline-5-carboxamide] | < 1000 | < 50 |
| O=C1CCC(C(=O)NCc2cccc(C(F)(F)F)c2Cl)c2cccnc21 (stereo not shown) [Example 2, N-(2-chloro-3-(trifluoromethyl)benzyl)-8-oxo-5,6,7,8-tetrahydroquinoline-5-carboxamide] | < 1000 | < 50 |
| O=C(NCc1ccc(Cl)cc1Cl)[C@]1(F)CC[C@@H](O)c2ncccc21 [Example 106, (5S,8R)-N-(2,4-dichlorobenzyl)-5-fluoro-8-hydroxy-5,6,7,8-tetrahydroquinoline-5-carboxamide] | < 1000 | < 50 |
| Cc1cccc(Cl)c1CNC(=O)[C@]1(F)CC[C@H](O)c2ncccc21 [Example 161, (5S,8S)-N-(2-chloro-6-methylbenzyl)-5-fluoro-8-hydroxy-5,6,7,8-tetrahydroquinoline-5-carboxamide] | < 1000 |  |
| O=C(NCc1c(Cl)cc(Cl)cc1CO)C1CCC(O)c2ncccc21 (stereo not shown) [Example 9, N-(2,4-dichloro-6-(hydroxy-methyl)benzyl)-8-hydroxy-5,6,7,8-tetrahydroquinoline-carboxamide] | < 1000 |  |
| Cc1cc(Cl)cc(Cl)c1CNC(=O)[C@]1(F)CC[C@H](O)c2ncccc21 [Example 127, (5S,8S)-N-(2,4-dichloro-6-methylbenzyl)-fluoro-8-hydroxy-5,6,7,8-tetrahydroquinoline-5-carboxamide] | < 1000 |  |
| NC(=O)CC1CCC(C(=O)NCc2cccc(C(F)(F)F)c2Cl)c2cccnc21 (stereo not shown) [Example 32, (2-amino-2-oxoethyl)-N-(2-chloro-3-(trifluoro-methyl)benzyl)-5,6,7,8-tetra-hydroquinoline-5-carboxamide] | < 1000 |  |
| O=C(NCc1ccc(F)c(F)c1Cl)[C@]1(F)CC[C@H](O)c2ncccc21 [Example 174, (5S,8S)-N-(2-chloro-3,4-difluorobenzyl)-5-fluoro-8-hydroxy-5,6,7,8-tetrahydroquinoline-5-carboxamide] | < 1000 |  |
| O=C(NCc1c(F)cc(Cl)cc1Cl)[C@]1(F)CC[C@H](O)c2ncccc21 [Example 152, (5S,8S)-N-(2,4-dichloro-6-fluorobenzyl)-5-fluoro-8-hydroxy-5,6,7,8-tetrahydroquinoline-5-carboxamide] | < 1000 |  |
| C[C@]1(O)CC[C@@](F)(C(=O)NCc2ccc(Cl)c(F)c2F)c2cccnc21 [Example 267, (5S,8S)-N-(4-chloro-2,3-difluorobenzyl)-5-fluoro-8-hydroxy-8-methyl-5,6,7,8-tetrahydroquinoline-5-carboxamide] | < 1000 |  |
| O=C(NCc1ccc(F)cc1C(F)(F)F)[C@]1(F)CC[C@H](O)c2ncccc21 [Example 144, (5S,8S)-5-fluoro-N-(4-fluoro-2-(trifluoromethyl)benzyl)-8-hydroxy-5,6,7,8-tetrahydroquinoline-5-carboxamide] | < 1000 |  |
| CS(=O)(=O)C1CC[C@@](F)(C(=O)NCc2ccc(Cl)cc2Cl)c2cccnc21 (stereo partly shown) [Example 350] | < 1000 |  |
| O=C(NCc1cccc(C(F)(F)F)c1F)[C@]1(F)CC[C@H](O)c2ncccc21 [Example 175, (5S,8S)-5-fluoro-N-(2-fluoro-3-(trifluoromethyl)benzyl)-8-hydroxy-5,6,7,8-tetrahydroquinoline-5-carboxamide] | < 1000 |  |
| C[C@]1(O)CC[C@@](F)(C(=O)NCc2c(F)cc(F)cc2Cl)c2cccnc21 [Example 266, (5S,8S)-N-(2-chloro-4,6-difluorobenzyl)-5-fluoro-8-hydroxy-8-methyl-5,6,7,8-tetrahydroquinoline-5-carboxamide] | < 1000 |  |
| CO[C@H]1CC[C@@](F)(C(=O)NCc2c(F)cc(Cl)cc2Cl)c2cccnc21 [Example 335, (5S,8S)-N-(2,4-dichloro-6-fluorobenzyl)-5-fluoro-8-methoxy-5,6,7,8-tetrahydroquinoline-5-carboxamide] | < 1000 |  |
| O=C(NCc1ccc(C(F)(F)F)cc1Cl)[C@]1(F)CC[C@H](O)c2ncccc21 [Example 187, (5S,8S)-N-(2-chloro-4-(trifluoromethyl)benzyl)-5-fluoro-8-hydroxy-5,6,7,8-tetrahydroquinoline-5-carboxamide] | < 1000 |  |
| C[C@]1(O)CC[C@@](F)(C(=O)NC2CC2c2ccc(Cl)cc2Cl)c2cccnc21 (stereo partly drawn) [Example 273, (5S,8S)-N-((trans)-2-(2,4-dichlorophenyl)cyclopropyl)-5-fluoro-8-hydroxy-8-methyl-5,6,7,8-tetrahydroquinoline-5-carboxamide] | < 1000 |  |
| C[C@]1(O)CC[C@@](F)(C(=O)NCc2c(F)cc(Cl)cc2Cl)c2cccnc21 [Example 265, (5S,8S)-N-(2,4-dichloro-6-fluorobenzyl)-5-fluoro-8-hydroxy-8-methyl-5,6,7,8-tetrahydroquinoline-5-carboxamide] | < 1000 |  |
| Cc1cc(Cl)cc(Cl)c1CNC(=O)[C@@]1(F)CC[C@@H](O)c2ncccc21 [Example 126, (5R,8R)-N-(2,4-dichloro-6-methylbenzyl)-5-fluoro-8-hydroxy-5,6,7,8-tetrahydroquinoline-5-carboxamide] | < 1000 |  |
| O=C(NCc1c(F)cc(Cl)cc1Cl)[C@@]1(F)CC[C@@H](O)c2ncccc21 [Example 151, (5R,8R)-N-(2,4-dichloro-6-fluorobenzyl)-5-fluoro-8-hydroxy-5,6,7,8-tetrahydroquinoline-5-carboxamide] |  | < 50 |
| O=C(NCc1cc(C(F)(F)F)ccc1Cl)[C@]1(F)CC[C@H](O)c2ncccc21 [Example 209, (5S,8S)-N-(2-chloro-5-(trifluoromethyl)benzyl)-5-fluoro-8-hydroxy-5,6,7,8-tetrahydroquinoline 5-carboxamide] |  | 101 to 300 |
| Cc1ncsc1C(CNC(=O)[C@]1(F)CC[C@H](O)c2ncccc21)N1CCC(F)(F)CC1 (stereo partly drawn) [Example 236, (5S,8S)-N-(2-(4,4-difluoropiperidin-1-yl)-2-(4-methylthiazol-5-yl)ethyl)-5-fluoro-8-hydroxy-5,6,7,8-tetrahydroquinoline-5-carboxamide] |  | 1000 to 3000 |
| O=C(NCc1ccc(Cl)cc1Cl)[C@@]1(F)CC[C@H](F)c2ncccc21 [Example 353, (5R,8S)-N-(2,4-dichlorobenzyl)-5,8-difluoro-5,6,7,8-tetrahydroquinoline-5-carboxamide] |  | 50 to 100 |
